pIC50: −log10 of the molar value.
Experiments:
human TLR7 = human TLR7 (Homo sapiens (Human), UniProt Q9NYK1); assay: HEK293-Blue-hTLR-7 cells assay; type: cell-based; details: HEK293-Blue-hTLR7 cells, R848 stimulation, 20 hrs, SEAP reporter; read-out: HEK/hTLR7 IC50
Procedure, shortened: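 HEK293-Blue cells stably expressing hTLR7 with NF-κB/AP-1-driven SEAP reporter, incubated 20 h at 37 °C with serially diluted compound (1% DMSO) plus R848 agonist (10 μL of 20 μM stock). Supernatant SEAP measured with QUANTI-Blue after 2 h at 37 °C, absorbance 620-655 nm; antagonism as reduced reporter.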

human TLR9 = human TLR9 (Homo sapiens (Human), UniProt Q9NR96); assay: HEK293-Blue-hTLR-9 cells assay; type: cell-based; details: HEK293-Blue-hTLR9 cells, ODN2006 stimulation, 20 hrs, SEAP reporter; read-out: HEK/hTLR9 IC50
Chain of human TLR9 (Q9NR96 26-1032): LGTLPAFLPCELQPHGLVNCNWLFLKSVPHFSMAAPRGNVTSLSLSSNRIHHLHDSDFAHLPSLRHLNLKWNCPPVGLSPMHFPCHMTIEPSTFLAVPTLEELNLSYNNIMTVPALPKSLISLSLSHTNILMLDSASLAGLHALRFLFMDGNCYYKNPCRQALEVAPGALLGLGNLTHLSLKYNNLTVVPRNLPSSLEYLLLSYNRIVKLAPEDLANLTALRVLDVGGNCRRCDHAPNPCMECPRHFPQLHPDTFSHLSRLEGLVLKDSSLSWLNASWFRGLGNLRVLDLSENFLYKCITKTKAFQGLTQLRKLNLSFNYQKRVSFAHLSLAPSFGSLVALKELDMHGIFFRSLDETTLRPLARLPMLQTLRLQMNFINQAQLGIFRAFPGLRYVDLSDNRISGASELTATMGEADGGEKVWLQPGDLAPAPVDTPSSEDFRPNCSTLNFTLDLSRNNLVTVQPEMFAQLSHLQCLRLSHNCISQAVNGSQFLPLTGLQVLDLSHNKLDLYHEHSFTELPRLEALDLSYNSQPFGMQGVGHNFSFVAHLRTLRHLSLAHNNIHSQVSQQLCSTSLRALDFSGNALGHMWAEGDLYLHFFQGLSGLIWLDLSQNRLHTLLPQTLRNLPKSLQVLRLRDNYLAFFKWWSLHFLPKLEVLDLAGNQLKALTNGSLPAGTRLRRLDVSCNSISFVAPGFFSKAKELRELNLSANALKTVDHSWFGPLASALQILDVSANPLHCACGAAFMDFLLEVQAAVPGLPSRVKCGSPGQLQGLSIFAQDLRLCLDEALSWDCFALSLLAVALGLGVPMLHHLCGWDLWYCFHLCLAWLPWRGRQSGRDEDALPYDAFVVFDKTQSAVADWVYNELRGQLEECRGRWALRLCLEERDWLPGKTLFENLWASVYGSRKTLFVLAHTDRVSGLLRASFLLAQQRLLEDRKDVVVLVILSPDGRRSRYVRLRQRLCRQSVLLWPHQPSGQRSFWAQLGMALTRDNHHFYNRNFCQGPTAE

[1] = Human microsomal stability assay; type: in vitro ADME; details: human liver microsomes, 1 μM test compound, 37° C., pH 7.4
Description: Human Microsomal Stability Assay
Human liver microsomes (Cat. NO.: 452117, Corning, USA) were preincubated with test compound for 10 minutes at 37° C. in 100 mM potassium phosphate buffer, pH 7.4. The reactions were initiated by adding NADPH regenerating system. The final incubation mixtures contained 1 μM test compound, 0.5 mg/mL liver microsomal protein, 1 mM MgCl2, 1 mM NADP, 1 unit/mL isocitric dehydrogenase and 6 mM isocitric acid in 100 mM potassium phosphate buffer, pH 7.4. After incubation times of 0, 3, 6, 9, 15 and 30 minutes at 37° C., 300 μL of cold ACN (including internal standard) was added to 100 μL incubation mixture to terminate the reaction. Following precipitation and centrifugation, 100 μL supernatant will be taken out and added 300 μL water. The amount of compound remaining in the samples was determined by LC-MS/MS. Controls of no NADPH regenerating system at zero and 30 minutes were also prepared and analyzed. The results were categorized as: low (<7.0 mL/min/kg), medium (7.0-16.2 mL/min/kg) and high (16.2-23.2 mL/min/kg).

Chain of human TLR7 (Q9NYK1 27-1049): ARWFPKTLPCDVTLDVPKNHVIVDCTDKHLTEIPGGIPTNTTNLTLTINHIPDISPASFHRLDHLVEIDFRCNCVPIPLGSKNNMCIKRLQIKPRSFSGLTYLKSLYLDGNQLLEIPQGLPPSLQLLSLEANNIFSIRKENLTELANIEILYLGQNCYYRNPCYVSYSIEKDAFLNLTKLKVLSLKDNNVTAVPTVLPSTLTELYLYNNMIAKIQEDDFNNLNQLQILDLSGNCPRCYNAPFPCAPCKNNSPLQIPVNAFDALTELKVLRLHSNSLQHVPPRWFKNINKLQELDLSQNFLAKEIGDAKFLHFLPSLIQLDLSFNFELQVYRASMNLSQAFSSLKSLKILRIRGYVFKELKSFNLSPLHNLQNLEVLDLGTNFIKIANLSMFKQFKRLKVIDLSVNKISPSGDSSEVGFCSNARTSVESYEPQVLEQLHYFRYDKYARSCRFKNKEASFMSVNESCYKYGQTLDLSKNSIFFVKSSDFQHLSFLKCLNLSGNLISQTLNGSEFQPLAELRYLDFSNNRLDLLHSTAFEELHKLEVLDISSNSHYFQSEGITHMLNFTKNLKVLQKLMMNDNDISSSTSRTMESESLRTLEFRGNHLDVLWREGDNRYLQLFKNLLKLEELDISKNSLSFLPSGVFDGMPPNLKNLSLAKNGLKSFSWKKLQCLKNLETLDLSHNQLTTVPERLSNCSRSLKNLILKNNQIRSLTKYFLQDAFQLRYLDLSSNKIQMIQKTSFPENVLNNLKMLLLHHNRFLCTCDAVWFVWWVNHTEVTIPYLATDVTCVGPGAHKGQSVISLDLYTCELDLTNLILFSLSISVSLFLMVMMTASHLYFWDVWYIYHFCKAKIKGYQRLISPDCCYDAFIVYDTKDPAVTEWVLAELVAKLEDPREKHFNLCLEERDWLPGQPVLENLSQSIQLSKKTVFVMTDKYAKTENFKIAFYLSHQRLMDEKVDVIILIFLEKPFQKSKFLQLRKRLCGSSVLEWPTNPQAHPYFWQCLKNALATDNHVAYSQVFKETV

Row | pIC50 (human TLR7) | pIC50 (human TLR9) | CL (h) [1] [mL/min/kg] | Compound
1 | 7.79 | 7.36 | 9.1 | C[C@@H]1CN(c2ccc(C#N)c3ncccc23)C[C@@H]2C[C@@H](Nc3ccc4c(n3)CCNC4)CN21 [Example 1, 5-[(4R,7R,8aS)-4-methyl-7-(5,6,7,8-tetrahydro-1,6-naphthyridin-2-ylamino)-3,4,6,7,8,8a-hexahydro-1H-pyrrolo[1,2-a]pyrazin-2-yl]quinoline-8-carbonitrile]
2 | 7.39 | 7.05 | 7.3 | C[C@@H]1CN(c2ccc(C#N)c3ncccc23)C[C@@H]2C[C@@H](Nc3cc4c(cn3)CCNC4)CN21 [Example 2, 5-[(4R,7R,8aS)-4-methyl-7-(5,6,7,8-tetrahydro-2,6-naphthyridin-3-ylamino)-3,4,6,7,8,8a-hexahydro-1H-pyrrolo[1,2-a]pyrazin-2-yl]quinoline-8-carbonitrile]
3 | 7.41 | 6.94 | 6.7 | C[C@@H]1CN(c2ccc(C#N)c3ncccc23)C[C@@H]2C[C@@H](Nc3ccc4c(n3)CNCC4)CN21 [Example 3, 5-[(4R,7R,8aS)-4-methyl-7-(5,6,7,8-tetrahydro-1,7-naphthyridin-2-ylamino)-3,4,6,7,8,8a-hexahydro-1H-pyrrolo[1,2-a]pyrazin-2-yl]quinoline-8-carbonitrile]
4 | 7.89 | 6.92 | 8.0 | [2H]c1ccc2c(N3C[C@@H]4C[C@H](N5CCNCC5)CN4[C@H](C)C3)ccc(C#N)c2n1 [Example 15, 5-[(4R,7S,8aS)-4-methyl-7-piperazin-1-yl-3,4,6,7,8,8a-hexahydro-1H-pyrrolo[1,2-a]pyrazin-2-yl]-2-deuterio-quinoline-8-carbonitrile]
5 | 7.72 | 6.83 | 6.2 | [2H]c1ccc2c(N3C[C@@H]4C[C@H](N5CCC(N(C)C)CC5)CN4[C@H](C)C3)ccc(C#N)c2n1 [Example 20, 5-[(4R,7S,8aS)-7-[4-(dimethylamino)-1-piperidyl]-4-methyl-3,4,6,7,8,8a-hexahydro-1H-pyrrolo[1,2-a]pyrazin-2-yl]-2-deuterio-quinoline-8-carbonitrile]

From patent publication US12486273B2 (Hoffmann-La Roche Inc., priority 2019, dated 2025)
